Molecules are shown by their SMILES. Where “and” joins values, the source holds several entries; their conditions need not be identical. Identical values can stand only once. Inconclusive results and toxic doses are left out.

The experiment concerns BDF1 mice, P388 leukemia ip, median survival T/C. The experiment can be described thus: NCI In Vivo Anticancer Drug Screen. Data for tumor model P388 Leukemia (intraperitoneal) in B6D2F1 (BDF1) mice. The note with it: endpoint: median survival time, higher = longer survival. In outline: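 Antitumour effect was judged in vivo: survival in drug-treated mice, normalised to that of vehicle-dosed controls, gives the reported T/C.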

The mark [1] stands for this setting: dose: 50.0 mg/kg/injection, schedule: Q01DX009 (ip), vehicle: other.
Where [2] appears, read: dose: 100.0 mg/kg/injection, schedule: Q01DX009 (ip), vehicle: saline with Tween-80.
[3] abbreviates: dose: 200.0 mg/kg/injection, schedule: Q01DX009 (ip), vehicle: saline with Tween-80.
Setting [4] is: dose: 100.0 mg/kg/injection, schedule: Q01DX009 (ip), vehicle: Klucel (hydroxypropylcellulose) (HPC).
[5] abbreviates: dose: 200.0 mg/kg/injection, schedule: Q01DX009 (ip), vehicle: Klucel (hydroxypropylcellulose) (HPC).
Setting [6] is: dose: 100.0 mg/kg/injection, schedule: Q01DX009 (ip), vehicle: other.

`CC(CN1CC(=O)NC(=O)C1)N1CC(=O)NC(=O)C1` (stereo not drawn): the T/C is 200 % of control (dose: 3.12 mg/kg/injection, schedule: Q03HX024 (ip), vehicle: steriod suspending solution); 109 % of control (dose: 3.75 mg/kg/injection, schedule: Q01DX010 (oral), vehicle: saline with Tween-80); 205 % of control (dose: 6.25 mg/kg/injection, schedule: Q03HX024 (ip), vehicle: steriod suspending solution); 117 % of control (dose: 10.0 mg/kg/injection, schedule: Q04DX003 (ip), vehicle: Klucel (hydroxypropylcellulose) (HPC)); 100 % of control (dose: 12.5 mg/kg/injection, schedule: Q01DX009 (ip), vehicle: steriod suspending solution); 258 % of control (dose: 12.5 mg/kg/injection, schedule: Q03HX024 (ip), vehicle: steriod suspending solution). Moreover, the T/C is 154 % of control (dose: 15.0 mg/kg/injection, schedule: Q01DX010 (oral), vehicle: saline with Tween-80); 211 % of control (dose: 25.0 mg/kg/injection, schedule: Q03HX024 (ip), vehicle: steriod suspending solution); 186 % of control (dose: 30.0 mg/kg/injection, schedule: Q01DX010 (ip), vehicle: saline); 164 % of control (dose: 50.0 mg/kg/injection, schedule: Q01DX009 (ip), vehicle: steriod suspending solution); 111 % of control (dose: 50.0 mg/kg/injection, schedule: Q04DX002 (ip), vehicle: Klucel (hydroxypropylcellulose) (HPC)); 181 % of control (dose: 60.0 mg/kg/injection, schedule: Q01DX010 (ip), vehicle: saline). Also, the T/C runs as follows: (dose: 100.0 mg/kg/injection, schedule: Q01DX001 (ip), vehicle: steriod suspending solution) 111 % of control; (dose: 100.0 mg/kg/injection, schedule: Q01DX009 (ip), vehicle: steriod suspending solution) 111 % of control; (dose: 100.0 mg/kg/injection, schedule: Q04DX002 (ip), vehicle: Klucel (hydroxypropylcellulose) (HPC)) 108 % of control; (dose: 100.0 mg/kg/injection, schedule: Q04DX003 (ip), vehicle: steriod suspending solution) 176 % of control; (dose: 108.0 mg/kg/injection, schedule: Q04DX003 (ip), vehicle: Klucel (hydroxypropylcellulose) (HPC)) 231 % of control; (dose: 120.0 mg/kg/injection, schedule: Q01DX010 (ip), vehicle: saline) 113 % of control. In addition, the T/C (dose: 144.0 mg/kg/injection, schedule: Q04DX003 (ip), vehicle: Klucel (hydroxypropylcellulose) (HPC)) is 203 % of control; the T/C (dose: 180.0 mg/kg/injection, schedule: Q04DX003 (ip), vehicle: Klucel (hydroxypropylcellulose) (HPC)) was 287 % of control; the T/C (dose: 180.0 mg/kg/injection, schedule: Q04DX003 (ip), vehicle: alkali diluted with saline) was 196 % of control; the T/C (dose: 200.0 mg/kg/injection, schedule: Q04DX002 (ip), vehicle: Klucel (hydroxypropylcellulose) (HPC)) was 161 % of control; the T/C (dose: 200.0 mg/kg/injection, schedule: Q04DX003 (ip), vehicle: Klucel (hydroxypropylcellulose) (HPC)) is 100 % of control and 153 % of control and 215 % of control; the T/C (dose: 200.0 mg/kg/injection, schedule: Q04DX003 (ip), vehicle: steriod suspending solution) was 194 % of control. The T/C was 212 % of control (dose: 216.0 mg/kg/injection, schedule: Q04DX003 (ip), vehicle: Klucel (hydroxypropylcellulose) (HPC)); 245 % of control (dose: 240.0 mg/kg/injection, schedule: Q04DX003 (ip), vehicle: Klucel (hydroxypropylcellulose) (HPC)); 252 % of control (dose: 300.0 mg/kg/injection, schedule: Q04DX003 (ip), vehicle: alkali diluted with saline); 152 % of control (dose: 400.0 mg/kg/injection, schedule: Q01DX001 (ip), vehicle: steriod suspending solution); 193 % of control and 199 % of control (dose: 400.0 mg/kg/injection, schedule: Q04DX002 (ip), vehicle: Klucel (hydroxypropylcellulose) (HPC)); 176 % of control (dose: 400.0 mg/kg/injection, schedule: Q04DX003 (ip), vehicle: steriod suspending solution). Besides, the T/C runs as follows: (dose: 500.0 mg/kg/injection, schedule: Q04DX003 (ip), vehicle: Klucel (hydroxypropylcellulose) (HPC)) 91 % of control and 96 % of control; (dose: 500.0 mg/kg/injection, schedule: Q04DX003 (ip), vehicle: alkali diluted with saline) 93 % of control; (dose: 800.0 mg/kg/injection, schedule: Q01DX001 (ip), vehicle: steriod suspending solution) 94 % of control; (dose: 800.0 mg/kg/injection, schedule: Q04DX003 (ip), vehicle: steriod suspending solution) 111 % of control.
Regarding `CCO/C=C/C=C1C(=O)N(C)C(=O)N(C)C1=O`, the T/C under setting [1] is 122 % of control.
Take `Cc1cc(N(CCCl)CCCl)ccc1C=Nc1ccccc1C(=O)O`: the T/C runs as follows: under setting [2], 164 % of control; under setting [3], 180 % of control.
As for `CC(NC(=O)OCc1ccccc1)C(=O)NC(CC(=O)O)C(=O)O` (stereo not drawn), the T/C runs as follows: (dose: 25.0 mg/kg/injection, schedule: Q04DX003 (ip), vehicle: saline) 100 % of control; (dose: 50.0 mg/kg/injection, schedule: Q04DX003 (ip), vehicle: saline) 100 % of control; (dose: 100.0 mg/kg/injection, schedule: Q04DX003 (ip), vehicle: saline) 110 % of control.
As for `COc1c2ccoc2nc2c(OC)c3c(cc12)OCO3`, the T/C (dose: 12.5 mg/kg/injection, schedule: Q01DX009 (ip), vehicle: saline) is 109 % of control; the T/C (dose: 25.0 mg/kg/injection, schedule: Q01DX009 (ip), vehicle: saline) is 107 % of control; the T/C (dose: 50.0 mg/kg/injection, schedule: Q01DX009 (ip), vehicle: saline) was 109 % of control.
As to `O=C1OCCN1/N=C\c1ccccc1`, the T/C was 95 % of control (dose: 100.0 mg/kg/injection, schedule: Q01DX001 (ip), vehicle: olive oil, sesame oil, peanut oil); 104 % of control (dose: 200.0 mg/kg/injection, schedule: Q01DX001 (ip), vehicle: olive oil, sesame oil, peanut oil); 104 % of control (dose: 400.0 mg/kg/injection, schedule: Q01DX001 (ip), vehicle: olive oil, sesame oil, peanut oil).
With `FC(F)(F)c1cc(NC(=S)N2c3ccccc3-n3cccc3C2c2cccnc2)cc(C(F)(F)F)c1` (stereo not drawn), the T/C by setting is: (dose: 50.0 mg/kg/injection, schedule: Q01DX009 (ip), vehicle: Klucel (hydroxypropylcellulose) (HPC)) 97 % of control; under setting [4], 89 % of control; under setting [5], 91 % of control.
As for `Brc1cnc(OCc2ccccc2)nc1OCc1ccccc1`, the T/C runs as follows: under setting [2], 103 % of control; (dose: 100.0 mg/kg/injection, schedule: Q04DX003 (ip), vehicle: saline with Tween-80) 104 % of control; under setting [3], 103 % of control; (dose: 200.0 mg/kg/injection, schedule: Q04DX003 (ip), vehicle: saline with Tween-80) 104 % of control; (dose: 400.0 mg/kg/injection, schedule: Q01DX009 (ip), vehicle: saline with Tween-80) 107 % of control; (dose: 400.0 mg/kg/injection, schedule: Q04DX003 (ip), vehicle: saline with Tween-80) 108 % of control.
`CCCCNc1ccc([N+](=O)[O-])cc1[N+](=O)[O-]`: the T/C under setting [1] was 95 % of control; the T/C under setting [6] was 101 % of control; the T/C (dose: 200.0 mg/kg/injection, schedule: Q01DX009 (ip), vehicle: other) is 105 % of control.
Take `CC(=O)OCC(=O)[C@@]1(O)CC[C@H]2[C@@H]3CCC4=CC(=O)CC[C@]4(C)[C@@]3(F)[C@@H](O)C[C@@]21C`: the T/C was 104 % of control (dose: 50.0 mg/kg/injection, schedule: Q01DX009 (sc), vehicle: steriod suspending solution); 104 % of control (dose: 100.0 mg/kg/injection, schedule: Q01DX009 (sc), vehicle: steriod suspending solution); 115 % of control (dose: 100.0 mg/kg/injection, schedule: Q04DX003 (sc), vehicle: steriod suspending solution); 115 % of control (dose: 200.0 mg/kg/injection, schedule: Q04DX003 (sc), vehicle: steriod suspending solution).
`O=C1c2ccccc2C(=O)c2c(NCCSCCO)ccc(NCCSCCO)c21`: the T/C is 95 % of control (dose: 25.0 mg/kg/injection, schedule: Q01DX009 (ip), vehicle: other); 86 % of control under setting [1]; 94 % of control under setting [6].
Turning to `O=C(O)CSc1ccc(NC(=O)Nc2ccccc2F)cc1`, the T/C is 105 % of control under setting [4]; 105 % of control under setting [5]; 105 % of control (dose: 400.0 mg/kg/injection, schedule: Q01DX009 (ip), vehicle: Klucel (hydroxypropylcellulose) (HPC)).
